The source of these data is US20190365675A1, “COMPOSITIONS FOR THE PREVENTION AND/OR TREATMENT OF ALCOHOL USE DISORDERS” (SERVICIO ANDALUZ DE SALUD, priority 2016, published 2019).

Holding throughout (type): in vivo, Wistar rats
In one assay the test system is MCP-1. Briefly: MCP-1 levels (ELISA) in frontal cortex after ethanol intoxication. To be noted: OEA pre-treatment. As for the experimental part: The animals were treated with intragastric (i.g.) ethanol 3 times a day using an i.g. cannula (16G needle, Fisher Scientific, Waltham, Mass., USA), following a protocol based on a slightly modified standard 4-day alcohol intoxication pattern (Bernier et al., 2002a, b) (FIG. 1A). The ethanol doses were administered every 8 h for a total time of 4 days. The rats treated with ethanol received an initial loading dose of 5 g/kg of ethanol in a 30% solution (w/v) and then a maximum maintenance dose of 3 g/kg, which were determined based on blood ethanol levels (BEL). This repeated standard alcohol intoxication paradigm kept BEL intoxication relatively constant in a range of sedation/ataxia (190 to 430 mg/dl, Table 3), according to the 6-point alcohol intoxication behavior scale (Majchrowicz, 1975). The mean dose of ethanol/rat/day (days 1-4) was 7.06 g/kg, similar to other studies (Obernier et al., 2002a, b). […] The levels of soluble HMGB1, TNF-α, IL-1β and MCP-1 were determined by means of a commercially available enzyme-linked immunosorbent assay kit (ELISA) (Elabscience Biotechnology Co., Ltd., China, for HMGB-1; RayBiotech®, GA, USA, for TNF-α, IL-1β, and MCP-1). The nuclear/cytosol HMGB1 fraction was determined by means of Western blot analysis.
(An ELISA detects its analyte on a solid surface through an enzyme-linked reagent.)

A further assay concerns NF-kB p65 subunit. Briefly: NF-κB p65 mRNA and nuclear activity (ELISA-based kit) in frontal cortex after ethanol intoxication. The method, then: The animals were treated with intragastric (i.g.) ethanol 3 times a day using an i.g. cannula (16G needle, Fisher Scientific, Waltham, Mass., USA), following a protocol based on a slightly modified standard 4-day alcohol intoxication pattern (Bernier et al., 2002a, b) (FIG. 1A). The ethanol doses were administered every 8 h for a total time of 4 days. The rats treated with ethanol received an initial loading dose of 5 g/kg of ethanol in a 30% solution (w/v) and then a maximum maintenance dose of 3 g/kg, which were determined based on blood ethanol levels (BEL). This repeated standard alcohol intoxication paradigm kept BEL intoxication relatively constant in a range of sedation/ataxia (190 to 430 mg/dl, Table 3), according to the 6-point alcohol intoxication behavior scale (Majchrowicz, 1975). […] The quantitative changes in mRNA levels were estimated by means of RT-PCR, carried out in the presence of the SYBR green primer using a 20-L reaction in a Rotor-Gene (Corbett Research®, Mortlake, NSW, Australia). […] The nuclear extracts of the frontal cortex were incubated with specific NF-kB p65 subunit response element probes, and the binding of p65 to its probe was detected using an antibody specific for this subunit. A secondary antibody labeled by means of horseradish peroxidase was added, and the binding was detected by means of spectrophotometry at 450 nm. […]

Another assay concerns rats. Briefly: Elevated plus maze test during ethanol withdrawal. As for the experimental part:
In this third experiment (n=25), the treatment with ethanol intoxication and pre-treatment with OEA applied in experiment 2 was repeated, and the animals were subjected to elevated plus maze test 24 h and 12 days after the last forced administration of ethanol and to the forced swim test 48 h after the ethanol intoxication protocol. The rats were subjected to the forced swim test two days after the last ethanol force-feeding (see FIG. 1C for the experimental design), and specific behaviors were recorded with a digital video camera for 5 minutes. These same rats were also subjected to the elevated plus maze test equipped with infrared light photography (Panlab, Barcelona, Spain) 1 and 12 days after the last ethanol force-feeding, where the animals were allowed to freely explore the maze for 5 minutes. The tests were performed 3 h after the start of the dark phase.

In the case of `CCCCCCCC/C=C\CCCCCCCC(=O)NCCO` [OEA, oleoylethanolamide], the “Ethanol-induced increase in MCP-1 levels” value in the assay on MCP-1 is “prevented”. The “Ethanol-induced increase in nuclear activity of p65” value with NF-kB p65 subunit (frontal cortex nuclear extracts, OEA pre-treatment) is recorded as “counteracted”. Moreover, the “Ethanol-induced increase in p65 mRNA levels” value in the assay on NF-kB p65 subunit (frontal cortex, OEA pre-administration) is on record as “partially prevented”. For the same molecule, the “Elevated plus maze: percentage of entries and time in the open arms” value was “clear trend that shows a clear anxiolytic effect” in the assay with rats (24 h after ethanol intoxication, Dunn's post-hoc test did not find significant effects) and “not significant” in the assay on rats (12 days after ethanol intoxication).
